Source: PubChem BioAssay AID1259407 (Chemical Carcinogenesis Research Information System (CCRIS), 2018)
Activity calls are given as the source filed them. How the calls were made is not given here.

Test system: CCRIS mutagenicity, Ames/micronucleus/aberration tests
Experiment: CCRIS mutagenicity studies
[1] = Test System: AMES SALMONELLA TYPHIMURIUM, Strain/Indicator: TA100, Metabolic Activation: RAT, LIVER, S-9, AROCLOR 1254, Method: STANDARD PLATE
[2] = Test System: AMES SALMONELLA TYPHIMURIUM, Strain/Indicator: TA1535, Metabolic Activation: RAT, LIVER, S-9, AROCLOR 1254, Method: STANDARD PLATE
[3] = Test System: AMES SALMONELLA TYPHIMURIUM, Strain/Indicator: TA1537, Metabolic Activation: RAT, LIVER, S-9, AROCLOR 1254, Method: STANDARD PLATE
[4] = Test System: AMES SALMONELLA TYPHIMURIUM, Strain/Indicator: TA1537, Metabolic Activation: NONE, Method: STANDARD PLATE

Cc1ccc2cc3c(ccc4ccccc43)c3c2c1CC3
mutagenic call (End Point: In vivo mutagenicity, Test System: Lung, Species: Rat, Strain/Sex: Big Blue/male, Route: Intraperitoneal): active; positive (11-fold increase in mutant frequency and an increase in transversion t
mutagenic call (Test System: AMES SALMONELLA TYPHIMURIUM, Strain/Indicator: TA98, Metabolic Activation: RAT, BLADDER, S-9, PCB, Method: FLUCTUATION TEST): inactive; negative
mutagenic call (Test System: AMES SALMONELLA TYPHIMURIUM, Strain/Indicator: TA98, Metabolic Activation: RAT, LIVER, S-9, PHENOBARBITAL, Method: STANDARD PLATE): active; positive
mutagenic call (Test System: AMES SALMONELLA TYPHIMURIUM, Strain/Indicator: TA100, Metabolic Activation: MOUSE, LIVER, MICROSOMES, BENZO[E]PYRENE AND TCDD, Method: STANDARD PLATE): active; positive
mutagenic call (Test System: AMES SALMONELLA TYPHIMURIUM, Strain/Indicator: TA100, Metabolic Activation: RAT, BLADDER, S-9, PCB, Method: FLUCTUATION TEST): active; positive
mutagenic call [1]: active; positive
mutagenic call [2]: active; positive
mutagenic call [3]: active; positive
mutagenic call (Test System: AMES SALMONELLA TYPHIMURIUM, Strain/Indicator: TA1538, Metabolic Activation: MOUSE, LIVER, S-9, PHENOBARBITAL, Method: PREINCUBATION): active; positive
mutagenic call (Test System: AMES SALMONELLA TYPHIMURIUM, Strain/Indicator: TA1538, Metabolic Activation: RAT, LIVER, S-9, AROCLOR 1254, Method: STANDARD PLATE): active; positive
mutagenic call (Test System: AMES SALMONELLA TYPHIMURIUM, Strain/Indicator: TA1538, Metabolic Activation: RAT, LIVER, S-9, PHENOBARBITAL, Method: STANDARD PLATE): active; positive
mutagenic call (Test System: Ames Salmonella typhimurium, Strain/Indicator: TA98, Metabolic Activation: None, Method: Standard plate): active; positive (animals administered an onion (1% or 5%) diet for 1 month before the m
mutagenic call (Test System: Ames Salmonella typhimurium, Strain/Indicator: TA98, Metabolic Activation: S-9, Method: Standard plate): active; positive (animals administered an onion (1% or 5%) diet for 1 month before the m
mutagenic call (Test System: Ames Salmonella typhimurium, Strain/Indicator: TA100, Metabolic Activation: None, Method: Standard plate): active; positive (animals administered an onion (1% or 5%) diet for 1 month before the m
mutagenic call (Test System: Ames Salmonella typhimurium, Strain/Indicator: TA100, Metabolic Activation: S-9, Method: Standard plate): active; positive (animals administered an onion (1% or 5%) diet for 1 month before the m
mutagenic call (Test System: CHINESE HAMSTER OVARY, Strain/Indicator: CHO-K1-BH4 (HGPRT), Metabolic Activation: RAT, LIVER, S-9, AROCLOR, Method: SUSPENSION/PLATE): active; positive
mutagenic call (Test System: CHINESE HAMSTER V-79, Strain/Indicator: V-79/6-THIOGUANINE, Metabolic Activation: RAT, LIVER, S-9, PHENOBARBITAL, Method: STANDARD PLATE): active; positive
mutagenic call (Test System: CHINESE HAMSTER V-79, Strain/Indicator: V-79/8-AZAGUANINE, Metabolic Activation: CELL-MEDIATED, Method: STANDARD PLATE): active; positive
mutagenic call (Test System: E. COLI, Strain/Indicator: WP2 UVRA, Metabolic Activation: HAMSTER, LIVER, S-9, AROCLOR 1254, Method: STANDARD PLATE): inactive; negative
mutagenic call (Test System: E. COLI, Strain/Indicator: WP2 UVRA, Metabolic Activation: HAMSTER, LIVER, S-9, Method: STANDARD PLATE): inactive; negative
mutagenic call (Test System: E. COLI, Strain/Indicator: WP2 UVRA, Metabolic Activation: MOUSE, LIVER, S-9, AROCLOR 1254, Method: STANDARD PLATE): inactive; negative
mutagenic call (Test System: E. COLI, Strain/Indicator: WP2 UVRA, Metabolic Activation: MOUSE, LIVER, S-9, Method: STANDARD PLATE): inactive; negative
mutagenic call (Test System: E. COLI, Strain/Indicator: WP2 UVRA, Metabolic Activation: NONE, Method: STANDARD PLATE): inactive; negative
mutagenic call (Test System: E. COLI, Strain/Indicator: WP2 UVRA, Metabolic Activation: RAT, LIVER, S-9, AROCLOR 1254, Method: STANDARD PLATE): inactive; negative
mutagenic call (Test System: E. COLI, Strain/Indicator: WP2 UVRA, Metabolic Activation: RAT, LIVER, S-9, Method: STANDARD PLATE): inactive; negative
mutagenic call (Test System: UDS HUMAN FIBROBLASTS, Strain/Indicator: THY INCORP (NON-S-PHASE), Metabolic Activation: NONE, Method: LIQUID SCINTILLATION COUNTING): active; positive
mutagenic call (Test System: UDS RODENT HEPATOCYTES, Strain/Indicator: THY INCORP (NON-S-PHASE), Method: LIQUID SCINTILLATION COUNTING): active; positive
mutagenic call (Test System: UDS RODENT PRIMARY CELLS, Strain/Indicator: THY INCORP (NON-S-PHASE), Metabolic Activation: NONE, Method: AUTORADIOGRAPHY): active; positive

CCCCCCNC(=O)n1cc(F)c(=O)[nH]c1=O
mutagenic call (Test System: AMES SALMONELLA TYPHIMURIUM, Strain/Indicator: TA98, Metabolic Activation: S-9, Method: STANDARD PLATE): inactive; negative
mutagenic call (Test System: AMES SALMONELLA TYPHIMURIUM, Strain/Indicator: TA100, Metabolic Activation: NONE, Method: STANDARD PLATE): inactive; negative
mutagenic call (Test System: AMES SALMONELLA TYPHIMURIUM, Strain/Indicator: TA100, Metabolic Activation: S-9, Method: STANDARD PLATE): inactive; negative
mutagenic call (Test System: AMES SALMONELLA TYPHIMURIUM, Strain/Indicator: TA102, Metabolic Activation: NONE, Method: STANDARD PLATE): inactive; negative
mutagenic call [4]: inactive; negative
mutagenic call (Test System: AMES SALMONELLA TYPHIMURIUM, Strain/Indicator: TA1537, Metabolic Activation: S-9, Method: STANDARD PLATE): inactive; negative
mutagenic call (Test System: E. COLI, Strain/Indicator: WP2 (HCR), Metabolic Activation: NONE, Method: STANDARD PLATE): inactive; negative
mutagenic call (Test System: E. COLI, Strain/Indicator: WP2 (HCR), Metabolic Activation: S-9, Method: STANDARD PLATE): inactive; negative

CCOC(/C=C(\C)CCC=C(C)C)OCC
mutagenic call (Test System: AMES SALMONELLA TYPHIMURIUM, Strain/Indicator: TA97, Metabolic Activation: HAMSTER, LIVER, S-9, AROCLOR 1254 (10%), Method: PREINCUBATION): inactive; negative
mutagenic call (Test System: AMES SALMONELLA TYPHIMURIUM, Strain/Indicator: TA97, Metabolic Activation: NONE, Method: PREINCUBATION): inactive; negative
mutagenic call (Test System: AMES SALMONELLA TYPHIMURIUM, Strain/Indicator: TA97, Metabolic Activation: RAT, LIVER, S-9, AROCLOR 1254 (10%), Method: PREINCUBATION): inactive; negative
mutagenic call (Test System: AMES SALMONELLA TYPHIMURIUM, Strain/Indicator: TA98, Metabolic Activation: HAMSTER, LIVER, S-9, AROCLOR 1254 (10%), Method: PREINCUBATION): inactive; negative
mutagenic call (Test System: AMES SALMONELLA TYPHIMURIUM, Strain/Indicator: TA98, Metabolic Activation: NONE, Method: PREINCUBATION): inactive; negative
mutagenic call (Test System: AMES SALMONELLA TYPHIMURIUM, Strain/Indicator: TA98, Metabolic Activation: RAT, LIVER, S-9, AROCLOR 1254 (10%), Method: PREINCUBATION): inactive; negative
mutagenic call (Test System: AMES SALMONELLA TYPHIMURIUM, Strain/Indicator: TA100, Metabolic Activation: HAMSTER, LIVER, S-9, AROCLOR 1254 (10%), Method: PREINCUBATION): inactive; negative
mutagenic call (Test System: AMES SALMONELLA TYPHIMURIUM, Strain/Indicator: TA100, Metabolic Activation: NONE, Method: PREINCUBATION): inactive; negative
mutagenic call (Test System: AMES SALMONELLA TYPHIMURIUM, Strain/Indicator: TA100, Metabolic Activation: RAT, LIVER, S-9, AROCLOR 1254 (10%), Method: PREINCUBATION): inactive; negative
mutagenic call (Test System: AMES SALMONELLA TYPHIMURIUM, Strain/Indicator: TA1535, Metabolic Activation: HAMSTER, LIVER, S-9, AROCLOR 1254 (10%), Method: PREINCUBATION): active; positive
mutagenic call (Test System: AMES SALMONELLA TYPHIMURIUM, Strain/Indicator: TA1535, Metabolic Activation: NONE, Method: PREINCUBATION): inactive; negative
mutagenic call (Test System: AMES SALMONELLA TYPHIMURIUM, Strain/Indicator: TA1535, Metabolic Activation: RAT, LIVER, S-9, AROCLOR 1254 (10%), Method: PREINCUBATION): active; positive

CC(=O)C(Cl)Cl
mutagenic call (Test System: AMES SALMONELLA TYPHIMURIUM, Strain/Indicator: TA98, Metabolic Activation: NONE, Method: STANDARD PLATE): inactive; negative
mutagenic call (Test System: AMES SALMONELLA TYPHIMURIUM, Strain/Indicator: TA98, Metabolic Activation: RAT, LIVER, S-9, AROCLOR 1254, Method: STANDARD PLATE): inactive; negative
mutagenic call (Test System: AMES SALMONELLA TYPHIMURIUM, Strain/Indicator: TA100, Metabolic Activation: NONE, Method: FLUCTUATION TEST): active; positive
mutagenic call (Test System: AMES SALMONELLA TYPHIMURIUM, Strain/Indicator: TA100, Metabolic Activation: RAT, LIVER, S-9, AROCLOR 1254, Method: FLUCTUATION TEST): inactive; negative
mutagenic call [1]: active; positive
mutagenic call (Test System: AMES SALMONELLA TYPHIMURIUM, Strain/Indicator: TA1535, Metabolic Activation: NONE, Method: STANDARD PLATE): active; positive
mutagenic call [2]: active; positive
mutagenic call [4]: inactive; negative
mutagenic call [3]: inactive; negative
